In brackets after ≈: the same amount, converted by molar mass. Where two headings read alike, the source gives them in different places. Where a SMILES comes first, the peptide text is derived from it. Bridges are numbered along the chain shown (N, C = ends). The star is where a group is joined. Palmitoyl = CCCCCCCCCCCCCCCC(=O)*
Tests used:
Format in all cases: cell-based
[1] = test system: Candida albicans ATCC 10231
Method: (§1) The Staphylococcus aureus ATCC 25923, Staphylococcus epidermidis ATCC 14990, Escherichia coli ATCC 25922, Pseudomonas aeruginosa ATCC 9027, Candida albicans ATCC 10231, Candida glabrata ATCC 15126, Candida lipolytica PCM 2680-FY, and Candida tropicalis PCM 2709-FY strains were acquired from the Polish Collection of Microorganisms (PCM, Polish Academy of Sciences, Wrocław, Poland) and from the American Type Culture Collection (ATCC). All the strains were stored at −80 °C in Roti-Store cryo vials and before the tests were transferred into fresh Mueller–Hinton broth (MHB, Biocorp, Warsaw, Poland) for bacteria or RPMI-1640 (Sigma-Aldrich, Steinheim, Germany) for fungi and incubated for 24 h at 37 °C. Then, the cultures were seeded on Mueller–Hinton agar (BioMaxima, Lublin, Poland) or Sabouraud dextrose agar (SDA, BioMaxima, Lublin, Poland) plates, respectively, and incubated as just mentioned. These agar cultures were used for further microbiological assays. Cell densities for all assays were adjusted spectrophotometrically (Multiskan GO Microplate Spectrophotometer, Thermo Fisher Scientific, Vantaa, Finland) at 600 and 660 nm for bacteria and fungi, respectively.
(§2) The MICs were determined by broth microdilution method according to the Clinical and Laboratory Standard Institute guidelines For this purpose, initial inoculums of bacteria (5 × 10^5 CFU/mL) in MHB and yeasts (2 × 10^3 CFU/mL) in RPMI-1640 with 2% D-glucose were exposed to the ranging concentration of lipopeptides (0.5–256 μg/mL) and incubated at 37 °C for 18 h and 24 h, respectively. The experiments were conducted on 96-well microtiter polystyrene plates. The growth was assessed visually after incubation and the MIC was assumed as the lowest peptide concentration at which a noticeable growth of microorganisms was inhibited. All experiments were conducted in triplicate.

[2] = test system: Candida glabrata ATCC 15126
Method: as §1, §2

[3] = test system: Candida lipolytica PCM 2680-FY; conditions: 24 h
Method: as §1, §2

[4] = test system: Candida tropicalis PCM 2709-FY; conditions: 24 h
Method: as §1, §2

[5] = test system: Escherichia coli ATCC 25922
Method: as §1, §2

[6] = test system: Pseudomonas aeruginosa ATCC 9027
Method: as §1, §2

[7] = test system: Staphylococcus epidermidis ATCC 14990
Method: as §1, §2

[8] = test system: Candida albicans ATCC 10231; remark: listed apart in the source
Method: as §1
(§3) MBECs were determined on 96-well polystyrene flat-bottom plates. For this purpose, 24 h cultures of microorganisms were diluted to obtain final density 5.0 × 10^5 CFU/mL and 2.0 × 10^5 CFU/mL of bacteria and fungi, respectively. Briefly, 100 µL of cell suspension was added into the test plates. After 24 h of incubation at 37 °C the wells were rinsed three times with a phosphate buffer saline (PBS, pH 7.4) to remove non-adherent cells. Subsequently, 100 μL of the test compounds in concentration range (0.5–256 μg/mL) were added to each well. After 24 h of incubation at 37 °C, 20 μL of a cell viability reagent was added (resazurin, 4 g/L; Sigma Aldrich, St. Louis, MO, USA). The MBEC was read after 1 h. The determined values were recorded as the lowest concentration at which the reduction of resazurin (from blue to pink) was lower or equal to 10 ± 0.5% as compared to the positive (100%) and negative (0%) controls. The reduction was monitored by measuring absorbance at 570 nm (reduced) and 600 nm (oxidized) using a microplate spectrophotometer (Multiskan GO Microplate Spectrophotometer, Thermo Fisher Scientific, Vantaa, Finland). All experiments were conducted in triplicate.

[9] = test system: Candida glabrata ATCC 15126; remark: listed apart in the source
Method: as §1, §3

[10] = test system: Candida lipolytica PCM 2680-FY
Method: as §1, §3

[11] = test system: Candida tropicalis PCM 2709-FY
Method: as §1, §3

[12] = test system: Escherichia coli ATCC 25922; remark: listed apart in the source
Method: as §1, §3

[13] = test system: Pseudomonas aeruginosa ATCC 9027; remark: listed apart in the source
Method: as §1, §3

[14] = test system: Staphylococcus epidermidis ATCC 14990; remark: listed apart in the source
Method: as §1, §3

[15] = broth microdilution (CLSI), RPMI-1640 with 2% D-glucose, 2 × 10^3 CFU/mL, 37 °C, 24 h, visual, triplicate
[16] = broth microdilution (CLSI), RPMI-1640 with 2% D-glucose, 2 × 10^3 CFU/mL, 37 °C, visual, triplicate
[17] = broth microdilution (CLSI), MHB, 5 × 10^5 CFU/mL, 37 °C, 18 h, visual, triplicate
[18] = 24 h biofilm on polystyrene plates, 24 h exposure at 37 °C, resazurin, triplicate

| MIC C. albicans ([1]; ATCC 10231, 24 h) [µg/mL] | MIC C. glabrata ([2]; ATCC 15126, 24 h) [µg/mL] | MIC C. lipolytica [3] [µg/mL] | MIC C. tropicalis ([4]; PCM 2709-FY) [µg/mL] | MIC E. coli ([5]; ATCC 25922, 18 h) [µg/mL] | MIC P. aeruginosa ([6]; ATCC 9027, 18 h) [µg/mL] | MIC S. epidermidis ([7]; ATCC 14990, 18 h) [µg/mL] | SMILES | MBEC C. albicans ([8]; ATCC 10231, 24 h) [µg/mL] | MBEC C. glabrata ([9]; ATCC 15126, 24 h) [µg/mL] | MBEC C. lipolytica ([10]; 24 h) [µg/mL] | MBEC C. tropicalis ([11]; PCM 2709-FY, 24 h) [µg/mL] | MBEC E. coli ([12]; ATCC 25922, 24 h) [µg/mL] | MBEC P. aeruginosa ([13]; ATCC 9027, 24 h) [µg/mL] | MBEC S. epidermidis ([14]; ATCC 14990, 24 h) [µg/mL] | also measured |
| --- | --- | --- | --- | --- | --- | --- | --- | --- | --- | --- | --- | --- | --- | --- | --- |
| 32 (≈ 40.2 µM) | 64 (≈ 80.4 µM) | 8 (≈ 10 µM) | 8 (≈ 10 µM) | 8 (≈ 10 µM) | 64 (≈ 80.4 µM) | 4 (≈ 5.02 µM) | CCCCCCCCCCCCCCCC(=O)N[C@@H](CCCCN)C(=O)N[C@@H](CCCCN)C(=O)N[C@@H](CCCCN)C(=O)N[C@@H](CCCNC(=N)N)C(N)=O [L6, C16-KKKR-NH2] (Palmitoyl-KKKR-NH2) | 128 | 128 | 32 | 128 | 256 | 256 | 32 | – |
| 32 (≈ 40.2 µM) | 64 (≈ 80.4 µM) | 8 (≈ 10 µM) | 8 (≈ 10 µM) | 8 (≈ 10 µM) | 64 (≈ 80.4 µM) | 8 (≈ 10 µM) | CCCCCCCCCCCCCCCC(=O)N[C@@H](CCCCN)C(=O)N[C@@H](CCCCN)C(=O)N[C@@H](CCCNC(=N)N)C(=O)N[C@@H](CCCCN)C(N)=O [L5, C16-KKRK-NH2] (Palmitoyl-KKRK-NH2) | 256 | 256 | 64 | 128 | 64 | 256 | 32 | – |
| 32 (≈ 38.8 µM) | 16 (≈ 19.4 µM) | 8 (≈ 9.71 µM) | 8 (≈ 9.71 µM) | 8 (≈ 9.71 µM) | 64 (≈ 77.7 µM) | 4 (≈ 4.85 µM) | CCCCCCCCCCCCCCCC(=O)N[C@@H](CCCNC(=N)N)C(=O)N[C@@H](CCCNC(=N)N)C(=O)N[C@@H](CCCCN)C(=O)N[C@@H](CCCCN)C(N)=O [L7, C16-RRKK-NH2] (Palmitoyl-RRKK-NH2) | 64 | 128 | 16 | 64 | 256 | 256 | 64 | – |

The remaining lines, values behind:

| SMILES | MIC C. albicans ([1]; ATCC 10231, 24 h) [µg/mL] | MIC C. glabrata ([2]; ATCC 15126, 24 h) [µg/mL] | MIC C. lipolytica [3] [µg/mL] | MIC C. tropicalis ([4]; PCM 2709-FY) [µg/mL] | MIC E. coli ([5]; ATCC 25922, 18 h) [µg/mL] | MIC P. aeruginosa ([6]; ATCC 9027, 18 h) [µg/mL] | MIC S. epidermidis ([7]; ATCC 14990, 18 h) [µg/mL] | MBEC C. albicans ([8]; ATCC 10231, 24 h) [µg/mL] | MBEC C. glabrata ([9]; ATCC 15126, 24 h) [µg/mL] | MBEC C. lipolytica ([10]; 24 h) [µg/mL] | MBEC C. tropicalis ([11]; PCM 2709-FY, 24 h) [µg/mL] | MBEC E. coli ([12]; ATCC 25922, 24 h) [µg/mL] | MBEC P. aeruginosa ([13]; ATCC 9027, 24 h) [µg/mL] | MBEC S. epidermidis ([14]; ATCC 14990, 24 h) [µg/mL] | also measured |
| --- | --- | --- | --- | --- | --- | --- | --- | --- | --- | --- | --- | --- | --- | --- | --- |
| CCCCCCCCCCCCCCCC(=O)N[C@@H](CCCCN)C(=O)N[C@@H](CCCCN)C(=O)N[C@@H](CCCCN)C(=O)N[C@@H](CCCCN)C(N)=O [L2, C16-KKKK-NH2] (Palmitoyl-KKKK-NH2) | 32 (≈ 41.7 µM) | 64 (≈ 83.3 µM) | 8 (≈ 10.4 µM) | 4 (≈ 5.21 µM) | 32 (≈ 41.7 µM) | 16 (≈ 20.8 µM) | 8 (≈ 10.4 µM) | 256 | 256 | 64 | 128 | 64 | >256 | 32 | – |
| CCCCCCCCCCCCCCCC(=O)N[C@H]1CSSC[C@@H](C(N)=O)NC(=O)[C@H](CCCCN)NC(=O)[C@H](CCCCN)NC(=O)[C@H](CCCCN)NC1=O [C1, C16-CKKKC-NH2] (Palmitoyl-CKKKC-NH2; disulfide 1-5) | 8 (≈ 9.48 µM) | 4 (≈ 4.74 µM) | 4 (≈ 4.74 µM) | 4 (≈ 4.74 µM) | 16 (≈ 19 µM) | 256 (≈ 303 µM) | 4 (≈ 4.74 µM) | 256 | 256 | 64 | 128 | 256 | 256 | 32 | – |
| CCCCCCCCCCCCCCCC(=O)N[C@H]1CSSC[C@@H](C(N)=O)NC(=O)[C@H](CCCCN)NC(=O)[C@H](CCCCN)NC(=O)[C@H](CCCCN)NC(=O)[C@H](CCCCN)NC1=O [C2, C16-CKKKKC-NH2] (Palmitoyl-CKKKKC-NH2; disulfide 1-6) | – | – | – | – | – | – | – | – | – | – | – | – | – | – | MIC C. albicans [1, 15]: 4 µg/mL (≈ 4.11 µM); MIC C. glabrata [2, 15]: 4 µg/mL (≈ 4.11 µM); MIC C. lipolytica [3, 16]: 2 µg/mL (≈ 2.06 µM); MIC C. tropicalis [4, 16]: 2 µg/mL (≈ 2.06 µM); MIC E. coli [5, 17]: 64 µg/mL (≈ 65.8 µM); MIC P. aeruginosa [6, 17]: 32 µg/mL (≈ 32.9 µM); MIC S. epidermidis [7, 17]: 8 µg/mL (≈ 8.23 µM); MBEC C. albicans [8, 18]: 64 µg/mL; MBEC C. glabrata [9, 18]: 64 µg/mL; MBEC C. lipolytica [10, 18]: 16 µg/mL; MBEC C. tropicalis [11, 18]: 32 µg/mL; MBEC E. coli [12, 18]: 64 µg/mL; MBEC P. aeruginosa [13, 18]: > 256 µg/mL; MBEC S. epidermidis [14, 18]: 32 µg/mL |
| CCCCCCCCCCCCCCCC(=O)N[C@H]1CSSC[C@@H](C(N)=O)NC(=O)[C@H](CCCCN)NC(=O)[C@H](CCCCN)NC(=O)[C@H](CCCCN)NC(=O)[C@H](CCCNC(=N)N)NC1=O [C3, C16-CRKKKC-NH2] (Palmitoyl-CRKKKC-NH2; disulfide 1-6) | 2 (≈ 2 µM) | 8 (≈ 8 µM) | 4 (≈ 4 µM) | 2 (≈ 2 µM) | 16 (≈ 16 µM) | – | 8 (≈ 8 µM) | 32 | 32 | 16 | 32 | 256 | 256 | 128 | – |
| CCCCCCCCCCCCCCCC(=O)N[C@H]1CSSC[C@@H](C(N)=O)NC(=O)[C@H](CCCNC(=N)N)NC(=O)[C@H](CCCCN)NC(=O)[C@H](CCCCN)NC(=O)[C@H](CCCCN)NC1=O [C6, C16-CKKKRC-NH2] (Palmitoyl-CKKKRC-NH2; disulfide 1-6) | 4 (≈ 4 µM) | 4 (≈ 4 µM) | 2 (≈ 2 µM) | 2 (≈ 2 µM) | 32 (≈ 32 µM) | 128 (≈ 128 µM) | 8 (≈ 8 µM) | 64 | 64 | 16 | 32 | >256 | >256 | 128 | – |
| CCCCCCCCCCCCCCCC(=O)N[C@H]1CSSC[C@@H](C(N)=O)NC(=O)[C@H](CCCCN)NC(=O)[C@H](CCCCN)NC(=O)[C@H](CCCNC(=N)N)NC(=O)[C@H](CCCNC(=N)N)NC1=O [C7, C16-CRRKKC-NH2] (Palmitoyl-CRRKKC-NH2; disulfide 1-6) | 16 (≈ 15.6 µM) | 4 (≈ 3.89 µM) | 4 (≈ 3.89 µM) | 4 (≈ 3.89 µM) | 16 (≈ 15.6 µM) | 256 (≈ 249 µM) | 4 (≈ 3.89 µM) | 64 | 64 | 16 | 32 | 256 | 256 | 64 | – |

Source: publication PMC7582905, “Effect of Disulfide Cyclization of Ultrashort Cationic Lipopeptides on Antimicrobial Activity and Cytotoxicity” (International Journal of Molecular Sciences, 2020)
